Test system: 945468-187-T-J3-PDC spheroids with HUVEC/MSC, viability
Assay: Anticancer human tumor 945468-187-T-J3-PDC patient-derived rectal carcinoma cell line growth inhibition [PI3K]
Conditions: for IC50: curve of first compound; for viability, T/C: stronger effect = lower value
How it was run: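 Tumor cells grown as multi-cell spheroids with HUVEC endothelial cells and MSC fibroblast-like stroma were treated with targeted agents combined with inavolisib, alpelisib, duvelisib or copanlisib. Doses fell in half-log steps from near clinical Cmax, else from 10 microM. Viability was measured.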

[1] = second compound 0.0316 µM, first compound 0.0316 µM
[2] = second compound 0.0316 µM, first compound 0.1 µM
[3] = second compound 0.0316 µM, first compound 0.316 µM
[4] = second compound 0.0316 µM, first compound 1 µM
[5] = second compound 0.0316 µM, first compound 3.16 µM
[6] = second compound 0.0316 µM, first compound 10 µM
[7] = second compound 0.1 µM, first compound 0.0316 µM
[8] = second compound 0.1 µM, first compound 0.1 µM
[9] = second compound 0.1 µM, first compound 0.316 µM
[10] = second compound 0.1 µM, first compound 1 µM
[11] = second compound 0.1 µM, first compound 3.16 µM
[12] = second compound 0.1 µM, first compound 10 µM
[13] = second compound 0.316 µM, first compound 0.0316 µM
[14] = second compound 0.316 µM, first compound 0.1 µM
[15] = second compound 0.316 µM, first compound 0.316 µM
[16] = second compound 0.316 µM, first compound 1 µM
[17] = second compound 0.316 µM, first compound 3.16 µM
[18] = second compound 0.316 µM, first compound 10 µM
[19] = second compound 1 µM, first compound 0.0316 µM
[20] = second compound 1 µM, first compound 0.1 µM
[21] = second compound 1 µM, first compound 0.316 µM
[22] = second compound 1 µM, first compound 1 µM
[23] = second compound 1 µM, first compound 3.16 µM
[24] = second compound 1 µM, first compound 10 µM
[25] = second compound 3.16 µM, first compound 0.0316 µM
[26] = second compound 3.16 µM, first compound 0.1 µM
[27] = second compound 3.16 µM, first compound 0.316 µM
[28] = second compound 3.16 µM, first compound 1 µM
[29] = second compound 3.16 µM, first compound 3.16 µM
[30] = second compound 3.16 µM, first compound 10 µM
[31] = second compound 10 µM, first compound 0.0316 µM
[32] = second compound 10 µM, first compound 0.1 µM
[33] = second compound 10 µM, first compound 0.316 µM
[34] = second compound 10 µM, first compound 1 µM
[35] = second compound 10 µM, first compound 3.16 µM
[36] = second compound 10 µM, first compound 10 µM
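Note: spheroids exposed to agents for 7 days before viability read.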
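Throughout, for viability, T/C: 100% = DMSO vehicle control viability.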

`CCCS(=O)(=O)Nc1ccc(F)c(C(=O)c2c[nH]c3ncc(-c4ccc(Cl)cc4)cc23)c1F` + CC(Nc1ncnc2nc[nH]c12)c1cc2cccc(Cl)c2c(=O)n1-c1ccccc1 gave an IC50 (second compound 0.0316 µM) of 8.2 µM, an IC50 (second compound 0.1 µM) of over 10 µM and an IC50 (second compound 0.316 µM) of over 10 µM. For the same molecule, the IC50 (second compound 1 µM) was over 10 µM, the IC50 (second compound 3.16 µM) was over 10 µM and the IC50 (second compound 10 µM) was over 10 µM. For the same molecule, the viability, T/C [1] was 100%, the viability, T/C [2] was 96.7% and the viability, T/C [3] was 103%. The viability, T/C [4] was 101%, the viability, T/C [5] was 99.2% and the viability, T/C [6] was 39.8%. It also gave a viability, T/C [7] of 104%, a viability, T/C [8] of 95.8% and a viability, T/C [9] of 93.8%. For the same molecule, the viability, T/C [10] was 91.3%, the viability, T/C [11] was 111% and the viability, T/C [12] was 77.9%. For the same molecule, the viability, T/C [13] was 102%, the viability, T/C [14] was 101% and the viability, T/C [15] was 91.7%. For the same molecule, the viability, T/C [16] was 99.3%, the viability, T/C [17] was 98.3% and the viability, T/C [18] was 60.6%. The viability, T/C [19] was 88.6%, the viability, T/C [20] was 92.8% and the viability, T/C [21] was 89.4%. For the same molecule, the viability, T/C [22] was 92%, the viability, T/C [23] was 101% and the viability, T/C [24] was 68.7%. The viability, T/C [25] was 92.6%, the viability, T/C [26] was 91.3% and the viability, T/C [27] was 102%. The viability, T/C [28] was 105%, the viability, T/C [29] was 105% and the viability, T/C [30] was 56.5%. The viability, T/C [31] was 91.3%, the viability, T/C [32] was 99.4% and the viability, T/C [33] was 94.8%. It also gave a viability, T/C [34] of 92.2%, a viability, T/C [35] of 105% and a viability, T/C [36] of 94.1%.
In the case of `C[C@@H](NC(=O)c1ncnc(N)c1Cl)c1ncc(C(=O)Nc2cc(C(F)(F)F)c(Cl)cn2)s1` + CC(Nc1ncnc2nc[nH]c12)c1cc2cccc(Cl)c2c(=O)n1-c1ccccc1, the IC50 (second compound 0.0316 µM) is reported as over 10 µM, the IC50 (second compound 0.1 µM) is reported as over 10 µM and the IC50 (second compound 0.316 µM) is reported as over 10 µM. It also gave an IC50 (second compound 1 µM) of over 10 µM, an IC50 (second compound 3.16 µM) of over 10 µM and an IC50 (second compound 10 µM) of over 10 µM. It also gave a viability, T/C [1] of 98%, a viability, T/C [2] of 87.3% and a viability, T/C [3] of 95.9%. The viability, T/C [4] was 101%, the viability, T/C [5] was 104% and the viability, T/C [6] was 105%. It also gave a viability, T/C [7] of 106%, a viability, T/C [8] of 109% and a viability, T/C [9] of 97.7%. It also gave a viability, T/C [10] of 96.5%, a viability, T/C [11] of 94.7% and a viability, T/C [12] of 103%. For the same molecule, the viability, T/C [13] was 95.7%, the viability, T/C [14] was 115% and the viability, T/C [15] was 108%. For the same molecule, the viability, T/C [16] was 103%, the viability, T/C [17] was 98.7% and the viability, T/C [18] was 96.6%. It also gave a viability, T/C [19] of 101%, a viability, T/C [20] of 101% and a viability, T/C [21] of 103%. It also gave a viability, T/C [22] of 96.2%, a viability, T/C [23] of 102% and a viability, T/C [24] of 86.5%. It also gave a viability, T/C [25] of 104%, a viability, T/C [26] of 105% and a viability, T/C [27] of 92.7%. It also gave a viability, T/C [28] of 106%, a viability, T/C [29] of 96.4% and a viability, T/C [30] of 96%. It also gave a viability, T/C [31] of 101%, a viability, T/C [32] of 99.7% and a viability, T/C [33] of 92.5%. It also gave a viability, T/C [34] of 108%, a viability, T/C [35] of 98.8% and a viability, T/C [36] of 93.3%.
`Cn1ncnc1[C@H]1c2n[nH]c(=O)c3cc(F)cc(c23)N[C@@H]1c1ccc(F)cc1` + CC(Nc1ncnc2nc[nH]c12)c1cc2cccc(Cl)c2c(=O)n1-c1ccccc1 showed an IC50 (second compound 0.0316 µM) of over 0.1 µM, an IC50 (second compound 0.1 µM) of over 0.1 µM and an IC50 (second compound 0.316 µM) of over 0.1 µM. The IC50 (second compound 1 µM) was over 0.1 µM, the IC50 (second compound 3.16 µM) was over 0.1 µM and the IC50 (second compound 10 µM) was over 0.1 µM. It also gave a viability, T/C (second compound 0.0316 µM, first compound 0.000316 µM) of 105%, a viability, T/C (second compound 0.0316 µM, first compound 0.001 µM) of 87.4% and a viability, T/C (second compound 0.0316 µM, first compound 0.00316 µM) of 91.7%. The viability, T/C (second compound 0.0316 µM, first compound 0.01 µM) was 82.9%, the viability, T/C [1] was 101% and the viability, T/C [2] was 92.4%. It also gave a viability, T/C (second compound 0.1 µM, first compound 0.000316 µM) of 94.2%, a viability, T/C (second compound 0.1 µM, first compound 0.001 µM) of 87.8% and a viability, T/C (second compound 0.1 µM, first compound 0.00316 µM) of 97.8%. For the same molecule, the viability, T/C (second compound 0.1 µM, first compound 0.01 µM) was 85.6%, the viability, T/C [7] was 89.3% and the viability, T/C [8] was 97.8%. The viability, T/C (second compound 0.316 µM, first compound 0.000316 µM) was 97.5%, the viability, T/C (second compound 0.316 µM, first compound 0.001 µM) was 95.8% and the viability, T/C (second compound 0.316 µM, first compound 0.00316 µM) was 90.1%. For the same molecule, the viability, T/C (second compound 0.316 µM, first compound 0.01 µM) was 103%, the viability, T/C [13] was 88% and the viability, T/C [14] was 101%. For the same molecule, the viability, T/C (second compound 1 µM, first compound 0.000316 µM) was 85.2%, the viability, T/C (second compound 1 µM, first compound 0.001 µM) was 109% and the viability, T/C (second compound 1 µM, first compound 0.00316 µM) was 98.5%. For the same molecule, the viability, T/C (second compound 1 µM, first compound 0.01 µM) was 86.8%, the viability, T/C [19] was 104% and the viability, T/C [20] was 105%. It also gave a viability, T/C (second compound 3.16 µM, first compound 0.000316 µM) of 103%, a viability, T/C (second compound 3.16 µM, first compound 0.001 µM) of 99.8% and a viability, T/C (second compound 3.16 µM, first compound 0.00316 µM) of 95.1%. It also gave a viability, T/C (second compound 3.16 µM, first compound 0.01 µM) of 100%, a viability, T/C [25] of 102% and a viability, T/C [26] of 104%. It also gave a viability, T/C (second compound 10 µM, first compound 0.000316 µM) of 101%, a viability, T/C (second compound 10 µM, first compound 0.001 µM) of 97.5% and a viability, T/C (second compound 10 µM, first compound 0.00316 µM) of 106%. It also gave a viability, T/C (second compound 10 µM, first compound 0.01 µM) of 95.7%, a viability, T/C [31] of 96.9% and a viability, T/C [32] of 102%.

— PubChem BioAssay AID1963968 (Molecular Pharmacology Branch, DTP, NCI, 2024)
